Reference: patent publication US9029389B2 (Institut Pasteur Korea, priority 2011, dated 2015)

Molecular target: T1, Human 5-lipoxygenase (Homo sapiens, UniProt P09917)
T1 construct: purchased Cayman 60402; host or cells: insect cells
T1 sequence (P09917 1-674): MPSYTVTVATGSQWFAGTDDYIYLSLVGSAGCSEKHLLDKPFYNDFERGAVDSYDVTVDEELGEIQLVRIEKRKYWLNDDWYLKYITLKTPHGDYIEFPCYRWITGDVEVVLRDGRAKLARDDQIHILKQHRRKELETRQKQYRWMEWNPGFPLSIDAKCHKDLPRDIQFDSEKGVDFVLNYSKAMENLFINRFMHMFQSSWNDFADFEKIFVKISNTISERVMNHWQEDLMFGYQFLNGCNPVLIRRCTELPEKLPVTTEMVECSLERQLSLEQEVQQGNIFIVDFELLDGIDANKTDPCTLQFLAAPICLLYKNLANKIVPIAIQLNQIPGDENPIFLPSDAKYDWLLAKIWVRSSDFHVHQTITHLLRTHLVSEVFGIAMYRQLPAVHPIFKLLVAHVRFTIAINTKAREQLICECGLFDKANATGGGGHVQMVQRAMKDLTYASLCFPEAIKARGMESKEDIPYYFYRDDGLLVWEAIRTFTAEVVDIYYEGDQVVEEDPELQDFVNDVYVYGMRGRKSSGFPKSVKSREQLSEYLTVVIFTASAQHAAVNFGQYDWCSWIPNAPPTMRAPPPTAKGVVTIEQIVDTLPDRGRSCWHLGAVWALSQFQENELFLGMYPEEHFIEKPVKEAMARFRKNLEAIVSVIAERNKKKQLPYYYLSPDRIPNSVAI
Test: Activity of compounds against 5-LO enzyme (LTB4 measurement and/or fluorescence method)
Type: biochemical
Conditions: for inhibition at 10 µM: 5-LO, single concentration of 10 uM in duplicate; for IC50: 6 or 11 point dose response in duplicate
In short: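 Insect-cell human 5-LO preincubated 15 min at RT with compound (pH 7.4, 2 mM CaCl2, 0.1 mM ATP, 1% DMSO), then 3 uM arachidonic acid for 5 min at 37 °C; LTB4 quantified by EIA and/or LC/MS/MS. Alternatively, fluorescence of 5-HpETE via H2DCFDA, 100 uM ATP, 3 uM arachidonic acid, 5 min, RT; single 10 uM screen then 6- or 11-point IC50.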

| Compound | inhibition at 10 µM | IC50 |
| --- | --- | --- |
| CCc1nc2cc(Cl)ccn2c1C(=O)NCc1ccc(N2CCC(C(=O)O)CC2)cc1 [compound 275, 1-(4-((7-Chloro-2-ethylimidazo[1,2-a]pyridine-3-carboxamido)methyl)phenyl)piperidine-4-carboxylic acid] | < 40% |  |
| CCc1nc2ccc(Cl)cn2c1C(=O)N1CC[C@@H](OCc2ccc(OC(F)(F)F)cc2)C1 [compound 391, (R)-(6-chloro-2-ethylimidazo[1,2-a]pyridin-3-yl)(3-(4-(trifluoromethoxy)benzyloxy)-pyrrolidin-1-yl)methanone] |  | 1 to 20 µM |
| CCc1nc2c(Br)cccn2c1C(=O)NCc1ccc(N2CCN(c3ccc(F)cc3)CC2)cc1 [compound 260, 8-Bromo-2-ethyl-N-(4-(4-(4-fluorophenyl)piperazin-1-yl)benzyl)imidazo[1,2-a]pyridine-3-carboxamide] | > 69% | > 20 µM |
| CCc1nc2ccc(Cl)cn2c1C(=O)NCc1ccc(OC(F)(F)F)cc1 [compound 55] | 40 to 69% | 1 to 20 µM |
| Cc1nc2ccccn2c1C(=O)NCc1ccc2[nH]ccc2c1 [compound 21, N-((1H-Indol-5-yl)methyl)-2-methylimidazo[1,2-a]pyridine-3-carboxamide] | < 40% |  |
| CCc1nc2cc(Cl)ccn2c1C(=O)NCc1ccc(Oc2ccc(F)cc2)cc1 [compound 129, 7-Chloro-2-ethyl-N-(4-(4-fluorophenoxy)benzyl)imidazo[1,2-a]pyridine-3-carboxamide] | 40 to 69% |  |
| CCCCCNc1ccc(CNC(=O)c2c(CC)nc3cc(Cl)ccn23)cc1 [compound 110, 7-Chloro-2-ethyl-N-(4-(pentylamino)benzyl)imidazo[1,2-a]pyridine-3-carboxamide] | > 69% | > 20 µM |
| CCc1nc2ccc(Cl)cn2c1C(=O)NCc1ccc2ccccc2c1 [compound 79, 6-Chloro-2-ethyl-N-(naphthalen-2-ylmethyl)imidazo[1,2-a]pyridine-3-carboxamide] | < 40% |  |
| CCc1nc2cc(Cl)ccn2c1C(=O)NCc1ccc(N2CCC(OCc3ccc(F)cc3)CC2)cc1 [compound 301, 7-Chloro-2-ethyl-N-(4-(4-(4-fluorobenzyloxy)piperidin-1-yl)benzyl)imidazo[1,2-a]pyridine-3-carboxamide] | 40 to 69% |  |
| CCc1nc2ccc([N+](=O)[O-])cn2c1C(=O)NCc1ccc(OC(F)(F)F)cc1 [compound 69, 2-Ethyl-6-nitro-N-(4-(trifluoromethoxy)benzyl)imidazo[1,2-a]pyridine-3-carboxamide] | 40 to 69% |  |
| CCc1nc2ccc(Cl)cn2c1C(=O)NCc1ccc(OCc2ccc(F)cc2)cc1 [compound 172, 6-Chloro-2-ethyl-N-(4-(4-fluorobenzyloxy)benzyl)imidazo[1,2-a]pyridine-3-carboxamide] | < 40% |  |
| CCc1nc2cc(Cl)ccn2c1C(=O)NCc1ccc(-c2ccc(C#N)cc2C)cc1 [compound 109, 7-Chloro-N-((4′-cyano-2′-methylbiphenyl-4-yl)methyl)-2-ethylimidazo[1,2-a]pyridine-3-carboxamide] | 40 to 69% |  |
| CCc1nc2cc(Cl)c(Cl)cn2c1C(=O)NCc1ccc(N2CCN(Cc3ccc(F)cc3)CC2)cc1 [compound 179, 6,7-Dichloro-2-ethyl-N-(4-(4-(4-fluorobenzyl)piperazin-1-yl)benzyl)imidazo1,2-al pyridine-3-carboxamide] | 40 to 69% |  |
| Cc1nc2ccccn2c1C(=O)O [compound 2, 2-Methylimidazo[1,2-a]pyridine-3-carboxylic acid] | < 40% |  |
| CCc1nc2cc(Cl)ccn2c1C(=O)NCc1ccn(-c2ccc(OC(F)(F)F)cc2)n1 [compound 133, 7-Chloro-2-ethyl-N-((1-(4-(trifluoromethoxy)phenyl)-1H-pyrazol-3-yl)methyl)imidazo[1,2-a]pyridine-3-carboxamide] | 40 to 69% |  |
| Cc1nc2cc(C#N)ccn2c1C(=O)NCc1ccccc1 [compound 42, N-Benzyl-7-cyano-2-methylimidazo[1,2-a]pyridine-3-carboxamide] | < 40% |  |
| Cc1nc2ccc(-c3ccccc3)cn2c1C(=O)NCc1ccccc1 [compound 39, N-Benzyl-2-methyl-6-phenylimidazo[1,2-a]pyridine-3-carboxamide] | < 40% |  |

| Compound | inhibition at 10 µM | IC50 |
| --- | --- | --- |
| CCc1nc2ccc(C)cn2c1C(=O)NCc1ccc(N2CCOCC2)cc1 [compound 315, 2-ethyl-6-methyl-N-(4-morpholinobenzyl)imidazo[1,2-a]pyridine-3-carboxamide] | < 40% |  |
| CCc1nc2cc(Cl)ccn2c1C(=O)NCc1ccc(-n2cc3c(c2)CCCC3)cc1 [compound 217, 7-Chloro-2-ethyl-N-(4-(4,5,6,7-tetrahydro-2H-isoindol-2-yl)benzyl)imidazo[1,2-a]pyridine-3-carboxamide] | > 69% | 1 to 20 µM |
| CCc1nc2ccccn2c1C(=O)NCc1ccc(Oc2ccccc2)cc1 [compound 45, 2-Ethyl-N-(4-phenoxybenzyl)imidazo[1,2-a]pyridine-3-carboxamide] | < 40% |  |
| CCc1nc2ccc(Cl)cn2c1C(=O)NCc1ccc(Oc2ccc(OC(F)(F)F)cc2)cc1 [compound 131, 6-Chloro-2-ethyl-N-(4-(4-(trifluoromethoxy)phenoxy)benzyl)imidazo[1,2-a]pyridine-3-carboxamide] | 40 to 69% |  |
| CCc1nc2ccc(Cl)cn2c1C(=O)NCc1ccc(N2CCC(COC(C)C)CC2)cc1 [compound 276, 6-Chloro-2-ethyl-N-(4-(4-(isopropoxymethyl)piperidin-1-yl)benzyl)imidazo[1,2-a]pyridine-3-carboxamide] | < 40% |  |
| CCc1nc2ccc(Cl)cn2c1CNc1ccc(OC(F)(F)F)cc1 [compound 144, N-((6-Chloro-2-ethylimidazo[1,2-a]pyridin-3-yl)methyl)-4-(trifluoromethoxy)aniline] | 40 to 69% |  |
| CCc1nc2ccc(Cl)cn2c1C(=O)NCc1ccc(N2CCC(C(=O)c3ccc(F)cc3)CC2)cc1 [compound 323, 6-chloro-2-ethyl-N-(4-(4-(4-fluorobenzoyl)piperidin-1-yl)benzyl)imidazo[1,2-a]pyridine-3-carboxamide] | < 40% |  |
| CCc1nc2cc(Cl)ccn2c1CNc1ccc(NC2CCN(c3ccc(F)cc3)CC2)cc1 [compound 375, N1-((7-chloro-2-ethylimidazo[1,2-a]pyridin-3-yl)methyl)-N4-(1-(4-fluorophenyl)piperidin-4-yl)benzene-1,4-diamine] | > 69% |  |
| CCc1nc2cc(Cl)ccn2c1C(=O)NCc1ccc(-n2cccc2)cc1 [compound 117, N-(4-(1H-Pyrrol-1-yl)benzyl)-7-chloro-2-ethylimidazo[1,2-a]pyridine-3-carboxamide] | < 40% |  |
| CCc1nc2cc(Cl)ccn2c1C(=O)NCc1ccc2oc(-c3ccc(F)cc3)nc2c1 [compound 259, 7-Chloro-2-ethyl-N-((2-(4-fluorophenyl)benzo[d]oxazol-5-yl)methyl)imidazo[1,2-a]pyridine-3-carboxamide] | < 40% |  |
| CCc1nc2ccc(Cl)cn2c1C(=O)NCc1ccc(/C=C/c2ccc(F)cc2)cc1 [compound 329, (E)-6-chloro-2-ethyl-N-(4-(4-fluorostyryl)benzyl)imidazo[1,2-a]pyridine-3-carboxamide] | < 40% |  |
| CCc1nc2ccc(Cl)cn2c1C(=O)NCc1ccn(-c2ccc(OC(F)(F)F)cc2)n1 [compound 132, 6-Chloro-2-ethyl-N-((1-(4-(trifluoromethoxy)phenyl)-1H-pyrazol-3-yl)methyl)imidazo[1,2-a]pyridine-3-carboxamide] | 40 to 69% |  |
| CCc1nc2cc(Cl)ccn2c1C(=O)NCc1ccc(N2CCN(C)CC2)cc1 [compound 108, 7-Chloro-2-ethyl-N-(4-(4-methylpiperazin-1-yl)benzyl)imidazo[1,2-a]pyridine-3-carboxamide] | < 40% |  |
| CCc1nc2ccc(Cl)cn2c1CNCCc1cccnc1 [compound 343, N-((6-chloro-2-ethylimidazo[1,2-a]pyridin-3-yl)methyl)-2-(pyridin-3-yl)ethanamine] | < 40% |  |
| CCc1nc2ccc(Cl)cn2c1C(=O)NCc1ccc(N2CCC(O)(c3ccccc3)CC2)cc1 [compound 328, 6-chloro-2-ethyl-N-(4-(4-hydroxy-4-phenylpiperidin-1-yl)benzyl)imidazo[1,2-a]pyridine-3-carboxamide] | < 40% |  |
| CCc1nc2cc(Cl)ccn2c1C(=O)NCc1ccc(-c2ccc(C=O)cc2)cc1 [compound 287, 7-Chloro-2-ethyl-N-((4′-formylbiphenyl-4-yl)methyl)imidazo[1,2-a]pyridine-3-carboxamide] | 40 to 69% |  |
| CCc1nc2ccc(Cl)cn2c1C(=O)NCc1ccc(-c2ccc(C#N)cc2C)cc1 [compound 104, 6-Chloro-N-((4′-cyano-2′-methylbiphenyl-4-yl)methyl)-2-ethylimidazo[1,2-a]pyridine-3-carboxamide] | 40 to 69% |  |
